Reference: patent US7923004B2 (priority 2006, dated 2011)

Tests used:
Assay type in all cases: cell-based
[1] = system: HCV genotype 1a replicon (En5-3/Htat2ANeo cells); assay: HCV-1a Replicon RNA (Taqman) inhibition assay; conditions: Hepatitis C virus, 72 h
[2] = Cell Titer-Glo Cell Viability Assay, genotype 1a cells; conditions: human, En5-3/Htat2ANeo (HCV genotype 1a replicon) cells, HCV-1a assays, read-out: Cytotoxicity* (CC50)
Method: (§1) Cell Seeding and Compound Treatment: Huh-Luc-Neo (Genotype 1b) or En5-3/Htat2ANeo (Genotype 1a) cells are seeded at 5000-7000/well in an opaque-walled 96 plate with Growth Medium (DMEM phenol red free+PS+2 mM glutamine; 100 ul/well). The compounds to be tested for inhibition of cell viability are added to the experimental wells so as to generate a dose response curve (8-9 concentrations, 10 μl/well at 10× assay concentration) and the cells are then incubated (5% CO2, 37° C.) for 72 h.
(§2) Reagent Preparation and Assay: After completion of the incubation period the cell viability measurements are made using the Cell Titre Glo Assay (Promega) according to the manufacturer's recommended protocol. Briefly, the CellTiter-Glo Buffer is thawed and equilibrated to room temperature prior to use. The lyophilized CellTiter-Glo Substrate is also equilibrated to room temperature prior to use. 10 ml of CellTiter-Glo Buffer is then transferred to 1 vial of CellTiter-Glo Substrate and mixed gently with a Vortex. 100 μl of CellTiter-Glo Assay reagent (CellTiter-Glo Buffer+CellTiter-Glo Substrate Mixture) is added to each well. The well contents are mixed for 5 min. on an orbital shaker at room temperature to induce cell lysis and the luminescence is then measured using a luminometer.

[3] = system: HCV genotype 1b replicon (Huh-Luc-Neo cells); assay: HCV Replicon RNA (Taqman) Assay, genotype 1b; conditions: Hepatitis C virus, 72 h, read-out: HCV-1b Replicon Inhibition*, Taqman (EC50)
[4] = system: HCV genotype 1b replicon (Huh-Luc-Neo cells); assay: HCV Replicon Luciferase Assay; conditions: Hepatitis C virus, 72 h, read-out: HCV-1b Replicon Inhibition*, Luciferase (EC50)
[5] = Cell Titer-Glo Cell Viability Assay, genotype 1b cells; conditions: human, Huh-Luc-Neo (HCV genotype 1b replicon) cells, HCV genotype 1b assays, read-out: Cytotoxicity* (CC50)
Method: as §1, §2

[6] = Huh-Luc-Neo cells, genotype 1b, HCV RNA
[7] = GETYPE1B, Huh-Luc-Neo cells, genotype 1b, HCV RNA
[8] = GETYPE1B, Huh-Luc-Neo cells, genotype 1b

| Structure (SMILES) | EC50 [3, 6] | EC50 ([4]; Huh-Luc-Neo cells, genotype 1b) | CC50 at 72 h [5] | also measured |
| --- | --- | --- | --- | --- |
| Cn1nccc1C(=O)N[C@@H](C(=O)N1CCOC[C@H]1C(=O)Nc1ccc(C#Cc2cn(CCC#N)nc2-c2cc(Cl)ccc2O)cc1)c1ccccc1 [Compound 1] |  |  |  | EC50 [1]: < 1000 nM; CC50 at 72 h [2]: > 33.3 µM |
| Cc1ccc(O)c(-c2nn(C)cc2C#Cc2ccc(NC(=O)[C@@H]3CCCCN3C(=O)[C@H](NC(=O)OC(C)(C)C)c3ccccc3)cc2)c1 [Compound 16] | < 1000 nM | < 1000 nM | > 100 µM |  |
| COc1ccccc1[C@@H](NC(=O)OC(C)(C)C)C(=O)N1CCOC[C@H]1C(=O)Nc1ccc(C#Cc2cn(C)nc2-c2cc(C#N)ccc2O)cc1 [Compound 22A] |  |  | > 100 µM | EC50 [3, 7]: < 1000 nM; EC50 [4, 8]: < 1000 nM |
| Cn1cc(C#Cc2ccc(NC(=O)[C@@H]3CCCCN3C(=O)[C@H](NC(=O)OC(C)(C)C)c3ccccc3)cc2)c(-c2cc(Br)ccc2O)n1 [Compound 22] | < 1000 nM | < 1000 nM | 10 to 100 µM |  |
| Cc1ccc(O)c(-c2nn(C)cc2C#Cc2ccc(NC(=O)C3CCCCN3C(=O)[C@H](Cc3ccc(Cl)cc3)NC(=O)OC(C)(C)C)cc2)c1 (some centres unmarked) [Compound 23] | < 1000 nM | < 1000 nM | 10 to 100 µM |  |
| Cc1ccc(O)c(-c2nn(C)cc2C#Cc2ccc(NC(=O)C3CCCCN3C(=O)[C@H](Cc3ccc(C(N)=O)cc3)NC(=O)OC(C)(C)C)cc2)c1 (some centres unmarked) [Compound 24] | < 1000 nM | < 1000 nM | 10 to 100 µM |  |
| Cc1ccc(O)c(-c2nn(C)cc2C#Cc2ccc(NC(=O)C3CCCCN3C(=O)[C@H](Cc3ccc(Br)cc3)NC(=O)OC(C)(C)C)cc2)c1 (some centres unmarked) [Compound 26] | < 1000 nM | < 1000 nM | 10 to 100 µM |  |
| Cc1ccc(O)c(-c2nn(C)cc2C#Cc2ccc(NC(=O)[C@@H]3CNCCN3C(=O)[C@H](NC(=O)OC(C)(C)C)c3ccccc3)cc2)c1 [Compound 27A] |  |  | 10 to 100 µM | EC50 [3, 7]: < 1000 nM; EC50 [4, 8]: < 1000 nM |
| Cc1ccc(O)c(-c2nn(C)cc2C#Cc2ccc(NC(=O)C3CCCCN3C(=O)[C@H](Cc3cccc(F)c3)NC(=O)OC(C)(C)C)cc2)c1 (some centres unmarked) [Compound 27] | < 1000 nM | < 1000 nM | 10 to 100 µM |  |
| CC(C)(C)OC(=O)N[C@@H](C(=O)N1CCOCC1C(=O)Nc1ccc(C#Cc2cn(CCO)nc2-c2cc(Cl)ccc2O)cc1)c1ccccc1 (some centres unmarked) [Compound 30A] |  |  | > 100 µM | EC50 [3, 7]: < 1000 nM; EC50 [4, 8]: < 1000 nM |
| CCOC(=O)c1ccc(O)c(-c2nn(C)cc2C#Cc2ccc(NC(=O)[C@@H]3CCCCN3C(=O)[C@H](NC(=O)OC(C)(C)C)c3ccccc3)cc2)c1 [Compound 30] | < 1000 nM | < 1000 nM | > 100 µM |  |
| CCOC(=O)c1ccc(O)c(-c2nn(C)cc2C#Cc2ccc(NC(=O)[C@@H]3CCCCN3C(=O)[C@H](NC(=O)OC(C)(C)C)c3ccccc3OC)cc2)c1 [Compound 31] | < 1000 nM | < 1000 nM | > 100 µM |  |
| CCOC(=O)c1ccc(O)c(-c2nn(C)cc2C#Cc2ccc(NC(=O)[C@@H]3CCCCN3C(=O)[C@H](NC(=O)OC(C)(C)C)c3ccsc3)cc2)c1 [Compound 33] | < 1000 nM | < 1000 nM | > 100 µM |  |
| Cn1cc(C#Cc2ccc(NC(=O)[C@@H]3COCCN3C(=O)[C@H](NC(=O)OC(C)(C)C)c3ccsc3)cc2)c(-c2cc(C#N)ccc2O)n1 [Compound 34] | < 1000 nM | < 1000 nM | > 100 µM |  |
| Cn1cc(C#Cc2ccc(NC(=O)[C@@H]3COCCN3C(=O)[C@H](NC(=O)OC(C)(C)C)c3ccccc3)cc2)c(-c2cc(C#N)ccc2O)n1 [Compound 37] | < 1000 nM | < 1000 nM | > 100 µM |  |
| CC(C)(C)OC(=O)N[C@@H](C(=O)N1CCCC[C@H]1C(=O)Nc1ccc(C#Cc2c[nH]nc2-c2cc(Cl)ccc2O)cc1)c1ccccc1 [Compound 38] | < 1000 nM | < 1000 nM | > 100 µM |  |
| CC(C)(C)OC(=O)N[C@@H](C(=O)N1CCCC[C@H]1C(=O)Nc1ccc(C#Cc2cn(CCO)nc2-c2cc(Cl)ccc2O)cc1)c1ccccc1 [Compound 39] | < 1000 nM | < 1000 nM | 10 to 100 µM |  |
| Cc1ccc(O)c(-c2nn(C)cc2C#Cc2ccc(NC(=O)[C@@H]3CN(C(=O)C(F)(F)F)CCN3C(=O)[C@H](NC(=O)OC(C)(C)C)c3ccccc3)cc2)c1 [Compound 41] | < 1000 nM | < 1000 nM | > 100 µM |  |

| Structure (SMILES) | EC50 [3, 6] | EC50 ([4]; Huh-Luc-Neo cells, genotype 1b) | CC50 at 72 h [5] | also measured |
| --- | --- | --- | --- | --- |
| CN(C(=O)OC(C)(C)C)[C@@H](Cc1ccccc1)C(=O)N1CCCC[C@@H]1C(=O)Nc1ccc(C#Cc2cn(CCO)nc2-c2cc(Cl)ccc2O)cc1 [Compound 42] | < 1000 nM | < 1000 nM | 10 to 100 µM |  |
| Cc1ccc(O)c(-c2nn(C)cc2C#Cc2ccc(NC(=O)[C@@H]3CS(=O)(=O)CCN3C(=O)[C@H](NC(=O)OC(C)(C)C)c3ccccc3)cc2)c1 [Compound 45] | < 1000 nM | < 1000 nM | > 100 µM |  |
| Cc1ccc(O)c(-c2nn(C)cc2C#Cc2ccc(NC(=O)[C@H]3CS(=O)(=O)CCN3C(=O)[C@H](NC(=O)OC(C)(C)C)c3ccccc3)cc2)c1 [Compound 46 (Table 1)] | < 1000 nM | < 1000 nM | > 100 µM |  |
| Cn1cc(C#Cc2ccc(NC(=O)[C@@H]3COCCN3C(=O)[C@H](NS(=O)(=O)C3CC3)c3ccccc3)cc2)c(-c2cc(Cl)ccc2O)n1 [Compound 55] | < 1000 nM | < 1000 nM | 10 to 100 µM |  |
| Cc1ccc(O)c(-c2nn(C)cc2C#Cc2ccc(NC(=O)C3CCCCN3C(=O)C(c3ccccc3)N(C)C(=O)OC(C)(C)C)cc2)c1 (centres unmarked) [Compound 56] | 1000 to 10000 nM | 1000 to 10000 nM | 10 to 100 µM |  |
| Cc1ccc(OCC(N)=O)c(-c2nn(C)cc2C#Cc2ccc(NC(=O)C3CCCCN3C(=O)[C@H](Cc3ccccc3)NC(=O)OC(C)(C)C)cc2)c1 (some centres unmarked) [Compound 58] |  |  | 10 to 100 µM | EC50 [3]: > 100000 nM; EC50 [4]: 1000 to 10000 nM |
| CC(=O)Oc1ccc(C)cc1-c1nn(C)cc1C#Cc1ccc(NC(=O)C2CCCCN2S(=O)(=O)c2cccs2)cc1 (centres unmarked) [Compound 63] | 1000 to 10000 nM | 1000 to 10000 nM | > 100 µM |  |
| Cc1ccc(O)c(-c2nn(C)cc2C#Cc2ccc(NC(=O)[C@@H]3CCCCN3C(=O)[C@@H](NC(=O)OC(C)(C)C)c3ccccc3)cc2)c1 [Example 17] | < 1000 nM | < 1000 nM | > 100 µM |  |
| Cc1ccc(O)c(-c2nn(C)cc2C#Cc2ccc(NC(=O)C3CCCCN3C(=O)[C@H](Cc3ccccc3)NC(=O)NC(C)(C)C)cc2)c1 (some centres unmarked) [Example 18] | < 1000 nM | < 1000 nM | > 100 µM |  |
| Cc1ccc(O)c(-c2nn(C)cc2C#Cc2ccc(NC(=O)C3CCCCN3C(=O)[C@H](Cc3ccccc3)N(C)C(=O)OC(C)(C)C)cc2)c1 (some centres unmarked) [Example 19] | < 1000 nM | < 1000 nM | 10 to 100 µM |  |
| Cn1cc(C#Cc2ccc(NC(=O)[C@H]3CCCCN3C(=O)C(NC(=O)OC(C)(C)C)c3ccccc3)cc2)c(-c2cc(Br)ccc2O)n1 (some centres unmarked) [Example 20] | < 1000 nM | < 1000 nM | 10 to 100 µM |  |
| Cc1ccc(O)c(-c2nn(C)cc2C#Cc2ccc(NC(=O)C3CCCCN3C(=O)[C@]3(NC(=O)OC(C)(C)C)C[C@@H]3c3ccccc3)cc2)c1 (some centres unmarked) [Example 21] | < 1000 nM | < 1000 nM | 10 to 100 µM |  |
| Cn1cc(C#Cc2ccc(NC(=O)[C@@H]3COCCN3C(=O)[C@H](NC(=O)OC(C)(C)C)c3ccccc3)cc2)c(-c2cc(F)ccc2O)n1 [Example 47] | < 1000 nM | < 1000 nM | > 100 µM |  |
| Cn1cc(C#Cc2ccc(NC(=O)[C@@H]3CCCCN3C(=O)[C@H](NC(=O)OC(C)(C)C)c3cccs3)cc2)c(-c2cc(Br)ccc2O)n1 [Example 48] | < 1000 nM | < 1000 nM | > 100 µM |  |
| Cn1cc(C#Cc2ccc(NC(=O)[C@@H]3CCCCN3C(=O)[C@@H](NC(=O)OC(C)(C)C)c3ccsc3)cc2)c(-c2cc(Br)ccc2O)n1 [Example 49] | < 1000 nM | < 1000 nM | 10 to 100 µM |  |
| Cc1ccc(O)c(-c2nn(C)cc2C#Cc2ccc(NC(=O)[C@@H]3CCCCN3C(=O)[C@H](NC(=O)OC(C)(C)C)c3cccs3)cc2)c1 [Example 50] | < 1000 nM | < 1000 nM | > 100 µM |  |
| Cn1cc(C#Cc2ccc(NC(=O)[C@@H]3COCCN3C(=O)[C@H](NC(=O)OC(C)(C)C)c3ccccc3)cc2)c(-c2cc(Cl)ccc2O)n1 [Example 51] | < 1000 nM | < 1000 nM | 10 to 100 µM |  |
